The source made the active and inactive calls. The rule behind the calls is not given here.
Experiments:
Rattus norvegicus [1] = assay: Antidiabetic activity in Zucker rat sub-chronic fa/fa prediabetic model assessed as decrease in plasma glucose AUC (0 to 120 mins) at 10 mg/kg, po qd during 10 days study by OGTT relative to control; format: functional; design: scale not given: the % may be the effect or the level left
[2] = target: Peroxisome proliferator-activated receptor alpha (Homo sapiens, UniProt Q07869); assay: Antagonist activity at recombinant GST-tagged human PPARalpha LBD assessed as inhibition of GW7647-induced fluorescein-labeled coactivator peptide recruitment preincubated with enzyme followed by coactivator addition by LanthaScreen TR-FRET assay
Peroxisome proliferator-activated receptor alpha, sequence (Q07869 whole entry, the tested form may be a part): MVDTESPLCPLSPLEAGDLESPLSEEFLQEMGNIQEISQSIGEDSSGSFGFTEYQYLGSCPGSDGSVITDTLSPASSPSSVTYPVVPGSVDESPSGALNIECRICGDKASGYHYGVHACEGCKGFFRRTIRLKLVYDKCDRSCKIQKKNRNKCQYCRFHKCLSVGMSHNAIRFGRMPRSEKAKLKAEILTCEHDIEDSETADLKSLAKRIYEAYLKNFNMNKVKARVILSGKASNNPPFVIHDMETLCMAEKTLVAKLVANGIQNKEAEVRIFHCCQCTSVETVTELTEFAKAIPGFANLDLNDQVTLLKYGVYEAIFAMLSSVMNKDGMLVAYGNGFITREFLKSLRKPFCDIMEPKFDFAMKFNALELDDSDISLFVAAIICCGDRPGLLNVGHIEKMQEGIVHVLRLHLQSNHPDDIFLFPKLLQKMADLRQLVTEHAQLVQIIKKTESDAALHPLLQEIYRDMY

[3] = Clearance in CD-1 mouse at 5 mg/kg, iv by LC-MS analysis; format: ADME, organism-based; conditions: in vivo
[4] = Cmax in ob/ob mouse at 18 mg/kg administered via oral gavage by LC-MS analysis; format: ADME, organism-based; design: dose 18 mg/kg, route oral; conditions: in vivo
Rattus norvegicus [5] = assay: Antidiabetic activity in Zucker rat sub-chronic fa/fa prediabetic model assessed as fasting blood insulin level at 1 mg/kg, po qd for 31 days measured on day 29 post dose (reference value: 8.5 +/- 1.4 ug/L); format: functional
[6] = AUC (0 to 24 hrs) in Zucker rat sub-chronic fa/fa prediabetic model at 10 mg/kg, po qd measured on day 1 post dose; format: ADME, organism-based; design: time < 24 hr, dose 10 mg/kg, route oral; conditions: in vivo
Rattus norvegicus [7] = assay: Toxicity in Zucker rat sub-chronic fa/fa prediabetic model assessed as food intake at 1 mg/kg, po qd for 29 days measured on day 1 to 29 during compound dosing (reference value: 969 +/- 18 g); format: organism-based; conditions: in vivo, 696 h
Rattus norvegicus [8] = assay: Toxicity in Zucker rat sub-chronic fa/fa prediabetic model assessed as food intake at 50 mg/kg, po qd for 29 days measured on day 1 to 29 during compound dosing (reference value: 969 +/- 18 g); format: organism-based; conditions: in vivo, 696 h
Rattus norvegicus [9] = assay: Toxicity in Zucker rat sub-chronic fa/fa prediabetic model assessed as liver weight at 1 mg/kg, po qd for 31 days measured on day 32 (reference value: 28 +/- 1.6 g); format: organism-based; conditions: in vivo, 744 h
Rattus norvegicus [10] = assay: Toxicity in Zucker rat sub-chronic fa/fa prediabetic model assessed as triglyceride level per gram liver at 50 mg/kg, po qd for 31 days measured on day 32 (reference value: 163.4 +/- 8.3 mg); format: organism-based; conditions: in vivo, 744 h
Rattus norvegicus [11] = assay: Toxicity in Zucker rat sub-chronic fa/fa prediabetic model assessed as serum cholesterol level at 50 mg/kg, po qd for 31 days measured on day 32 (reference value: 295 +/- 91 mg/dl); format: organism-based; conditions: in vivo, 744 h
Rattus norvegicus [12] = assay: Toxicity in Zucker rat sub-chronic fa/fa prediabetic model assessed as serum ALT level at 50 mg/kg, po qd for 31 days measured on day 32 (reference value: 151 +/- 23 U/L); format: organism-based; conditions: in vivo, 744 h
Rattus norvegicus [13] = assay: Toxicity in Zucker rat sub-chronic fa/fa prediabetic model assessed as serum creatinine level at 3 mg/kg, po qd for 31 days measured on day 32 (reference value: 0.71 +/- 0.07 mg/dl); format: organism-based; conditions: in vivo, 744 h
[14] = Drug uptake in kidney of Zucker rat sub-chronic fa/fa prediabetic model at 12.5 mg/kg, po qd for 11 days; format: ADME, organism-based; conditions: read-out: Drug uptake
Rattus norvegicus [15] = format: functional, Zucker
Rattus norvegicus [16] = format: functional, Zucker; remark: listed apart in the source
[17] = Cmax in […] chronic ob/ob model at 50 mg/kg, po qd measured on day 1 post dose; format: ADME, organism-based; design: dose 50 mg/kg, route oral; conditions: in vivo
[18] = Cmax in […] chronic ob/ob model at 50 mg/kg, po qd for 28 days measured on day 28 post last dose; format: ADME, organism-based; design: dose 50 mg/kg, route oral; conditions: in vivo
[19] = AUC (0 to 24 hrs) in […] model at 10 mg/kg, po qd measured on day 1 post dose; format: ADME, organism-based; design: dose 10 mg/kg, time < 24 hr, route oral; conditions: in vivo
Rattus norvegicus [20] = assay: Toxicity in […] chronic ob/ob model assessed as body weight at 50 mg/kg, po qd for 28 days measured on day 28 post last dose (reference value: 47.3 +/- 1.06 g); format: organism-based; conditions: in vivo, 672 h
Rattus norvegicus [21] = assay: Toxicity in […] model assessed as serum cholesterol level at 10 mg/kg, po qd for 31 days measured on day 32 (reference value: 195 +/- 5.5 mg/dl); format: organism-based; conditions: in vivo, 744 h
Rattus norvegicus [22] = assay: Toxicity in […] model assessed as serum ALT level at 3 mg/kg, po qd for 31 days measured on day 32 (reference value: 127 +/- 9 U/L); format: organism-based; conditions: in vivo, 744 h
Rattus norvegicus [23] = assay: Increase in ERRalpha mRNA expression in epididymal white adipose tissue of Zucker rat sub-chronic fa/fa prediabetic model at 10 mg/kg, po qd for 15 days by RT-PCR method; format: functional, organism-based
Rattus norvegicus [24] = assay: Effect on NDUFV3 gene expression in epididymal white adipose tissue of Zucker rat sub-chronic fa/fa prediabetic model at 10 mg/kg, po qd for 15 days by microarray analysis relative to control; format: functional
Rattus norvegicus [25] = assay: Effect on NDUFS2 gene expression in epididymal white adipose tissue of Zucker rat sub-chronic fa/fa prediabetic model at 10 mg/kg, po qd for 15 days by microarray analysis relative to control; format: functional
Rattus norvegicus [26] = assay: Effect on NDUFB5 gene expression in epididymal white adipose tissue of Zucker rat sub-chronic fa/fa prediabetic model at 10 mg/kg, po qd for 15 days by microarray analysis relative to control; format: functional
Rattus norvegicus [27] = assay: Effect on ACADM gene expression in epididymal white adipose tissue of Zucker rat sub-chronic fa/fa prediabetic model at 10 mg/kg, po qd for 15 days by microarray analysis relative to control; format: functional
Rattus norvegicus [28] = assay: Effect on CHUK gene expression in epididymal white adipose tissue of Zucker rat sub-chronic fa/fa prediabetic model at 10 mg/kg, po qd for 15 days by microarray analysis relative to control; format: functional
Rattus norvegicus [29] = assay: Effect on PRKD3 gene expression in epididymal white adipose tissue of Zucker rat sub-chronic fa/fa prediabetic model at 10 mg/kg, po qd for 15 days by microarray analysis relative to control; format: functional
Rattus norvegicus [30] = assay: Effect on PFKFB1 gene expression in epididymal white adipose tissue of Zucker rat sub-chronic fa/fa prediabetic model at 10 mg/kg, po qd for 15 days by microarray analysis relative to control; format: functional
Rattus norvegicus [31] = assay: Effect on DBT gene expression in epididymal white adipose tissue of Zucker rat sub-chronic fa/fa prediabetic model at 10 mg/kg, po qd for 15 days by microarray analysis relative to control; format: functional
Rattus norvegicus [32] = assay: Effect on CTGF gene expression in epididymal white adipose tissue of Zucker rat sub-chronic fa/fa prediabetic model at 10 mg/kg, po qd for 15 days by microarray analysis relative to control; format: functional
Rattus norvegicus [33] = assay: Effect on NR1H3 gene expression in epididymal white adipose tissue of Zucker rat sub-chronic fa/fa prediabetic model at 10 mg/kg, po qd for 15 days by microarray analysis relative to control; format: functional
Rattus norvegicus [34] = assay: Effect on PCK1 gene expression in epididymal white adipose tissue of Zucker rat sub-chronic fa/fa prediabetic model at 10 mg/kg, po qd for 15 days by microarray analysis relative to control; format: functional
Rattus norvegicus [35] = assay: Effect on PTGS2 gene expression in epididymal white adipose tissue of Zucker rat sub-chronic fa/fa prediabetic model at 10 mg/kg, po qd for 15 days by microarray analysis relative to control; format: functional

CN1CC[C@@H](N2C(=O)S/C(=C\c3ccc4c(cnn4Cc4ccc(Cl)cc4C(F)(F)F)c3)C2=O)[C@H](F)C1
Activity (Rattus norvegicus [1]): -46%
IC50 [2]: > 10 µM
clearance [3]: 10 mL/min/kg
Cmax [4]: 829 ng/mL
Activity (Rattus norvegicus [5]): 5 µg/L
AUC(0-t) at 24 h [6]: 18100 ng·h/mL
Activity (Rattus norvegicus [7]): 975 g
Activity (Rattus norvegicus [8]): 1049 g
Activity (Rattus norvegicus [9]): 21.9 g
Activity (Rattus norvegicus [10]): 69.4 mg
Activity (Rattus norvegicus [11]): 203 mg/dL
Activity (Rattus norvegicus [12]): 104 U/L
Activity (Rattus norvegicus [13]): 0.56 mg/dL
concentration at 264 h [14]: 2660 ng/g
Activity (Rattus norvegicus [15]): 17.3%
Activity (Rattus norvegicus [16]): 56958 mg·min/dL
Cmax [17]: 2680 ng/mL
Cmax [18]: 1680 ng/mL
AUC(0-t) at 24 h [19]: 3940 ng·h/mL
Activity (Rattus norvegicus [20]): 46.8 g
Activity (Rattus norvegicus [21]): 164 mg/dL
Activity (Rattus norvegicus [22]): 172 U/L
Activity (Rattus norvegicus [23]): Active
fold change (FC) (Rattus norvegicus [24]): 1.257
fold change (FC) (Rattus norvegicus [25]): 1.224
fold change (FC) (Rattus norvegicus [26]): 1.206
fold change (FC) (Rattus norvegicus [27]): 1.475
fold change (FC) (Rattus norvegicus [28]): 1.379
fold change (FC) (Rattus norvegicus [29]): -1.247
fold change (FC) (Rattus norvegicus [30]): 1.634
fold change (FC) (Rattus norvegicus [31]): -1.217
fold change (FC) (Rattus norvegicus [32]): 1.458
fold change (FC) (Rattus norvegicus [33]): 1.389
fold change (FC) (Rattus norvegicus [34]): 1.391
fold change (FC) (Rattus norvegicus [35]): -1.389
